Read-outs that look alike come from different tables or passages of the source.
Legend:
IFNa pSTAT1 [1] = test: Phosphorylation of STAT1 inhibition in HMC3 cells by Jess; assay type: cell-based; settings: Homo sapiens; HMC3 microglia cells, 50ng/mL hINFα 1 hour, Jess western; read-out: Jess_HMC3 IC50 (IFNa pSTAT1)
Method: Seeding HMC3 cells into 12-well plate and incubate overnight. Pre-stimulation with recombinant human IFNα (Sino biological, H08Y), treat cells with compound with different concentration for 1hr. After compound treatment, stimulate HMC3 cells with 50ng/mL hINFα for another 1 hour (for CCF-STTG1 cells IFNα induction time is 30 mins). And then wash cells with DPBS once gently and lyse cells with pre-cooled RIPA buffer (Sigma, R0278-500ML) for 30min on ice to harvest cells. Centrifuge cell lysate for 20 mins at 12000rpm with freezer centrifuge (Thermo Scientific, Heraeus Fresco 21) to extract protein. Prepare samples with Jess Simple Wes kit (SM-WO04) and then run western blot on Jess simple western system (Protein simple, JS-4631). Collect data and analyzed with GraphPad Prism.

IFNa pSTAT1 [2] = test: Phosphorylation of STAT1 inhibition in HMC3 cells with HTRF assay; assay type: cell-based; settings: Homo sapiens, HMC3 microglia cells, 50ng/mL hINFα 1 hour, read-out: HTRF_HMC3 IC 50 (IFNa pSTAT1)
Method: Seeding HMC3 cells into 96-well plate and incubate overnight. Pre-stimulation with recombinant human IFNα (Sino biological, H08Y), treat cells with compound with different concentration for 1hr. After compound treatment, stimulate cells with 50ng/mL hINFα for another 1 hour (for CCF-STTG1 cells IFNα induction time is 30 mins). After compound treatment and cytokine stimulation, dump old medium and lyse cells with supplemented lysis buffer provided by the HTRF kit (Revvity, 63ADK026PEG) for 30 min at room temperature under shaking. After homogenization by pipetting up and down, transfer 16 µL of cell lysate from the 96-well cell-culture plate to a small volume white 384-well plate, and then add 4 µL of pre-mixed two ready-to-use antibody working solution into each wells. Cover the plate with a plate sealer and incubate it overnight at room temperature. Read the fluorescence emission at two different wavelengths (665nm and 620nm) on microplate reader (Molecular Device, SpectraMax i3X). Collect data and analyzed with GraphPad Prism.

TYK2-JH2 domain = biological target: T1, TYK2-JH2 domain (Homo sapiens, UniProt P29597); test: Binding activity test for JH2 domain of TYK2 (Tb-antibody/tracer FRET); settings: for IC50: JH2 domain enzyme, 60 min at 25°C, then 4°C overnight, read-out: TYK2 JH2 Binding IC50
T1 construct: JAK1-JH2 domain or TYK2-JH2 domain enzyme in assay buffer
Outline: (§1)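 IC50 values (nM) come from TR-FRET readings taken after a 25°C incubation followed by overnight at 4°C. Each well held JH2 domain protein, Tb-antibody, tracer and test compound titrated in 11 threefold steps, with DMSO high and low controls.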

[3] = test system: Ba/F3-FL-TYK2-P760L cells; test: Anti-proliferative assay in engineered Ba/F3 cells (Cell-Titer Glo, 72 h); assay type: cell-based; settings: 72 h compound treatment, concentration that causes 50% growth inhibition, read-out: Baf3-FL-T2P760L
Outline: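 IC50 from luminescent ATP viability after 72 h compound exposure (37 °C, 5% CO2), % inhibition normalised to DMSO-treated cells minus medium blank. IL-3-free Ba/F3-FL-TYK2-P760L (Tel-JAK fusion) cells in 10% FBS RPMI-1640 received 9 three-fold doses, top 20 µM, 0.1% DMSO.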

JAK1-JH2 domain = biological target: T2, JAK1-JH2 domain (Homo sapiens, UniProt P23458); test: Binding activity test for JH2 domain of JAK1 (Tb-antibody/tracer FRET); settings: JH2 domain enzyme; 60 min at 25°C, then 4°C overnight; read-out: JAK1 JH2 Binding IC50
T2 construct: JAK1-JH2 domain or TYK2-JH2 domain enzyme in assay buffer
Outline: as §1

T1 sequence (P29597 589-875 limits assumed): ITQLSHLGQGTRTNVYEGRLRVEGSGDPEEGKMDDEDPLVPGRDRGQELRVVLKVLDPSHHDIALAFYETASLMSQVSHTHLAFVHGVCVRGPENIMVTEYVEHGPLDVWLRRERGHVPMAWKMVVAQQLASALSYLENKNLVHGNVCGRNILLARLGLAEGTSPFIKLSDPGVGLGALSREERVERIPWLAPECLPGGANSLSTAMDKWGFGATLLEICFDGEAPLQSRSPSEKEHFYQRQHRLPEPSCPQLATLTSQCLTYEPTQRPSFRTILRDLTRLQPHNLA
T2 sequence (P23458 583-855 limits assumed): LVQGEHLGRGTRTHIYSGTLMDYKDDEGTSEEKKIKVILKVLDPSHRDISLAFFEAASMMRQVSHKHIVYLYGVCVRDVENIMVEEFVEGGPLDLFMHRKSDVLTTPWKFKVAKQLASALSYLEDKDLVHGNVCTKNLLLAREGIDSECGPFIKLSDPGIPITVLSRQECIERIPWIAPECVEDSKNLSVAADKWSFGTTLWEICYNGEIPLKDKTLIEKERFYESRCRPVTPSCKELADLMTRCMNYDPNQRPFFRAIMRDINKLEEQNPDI

Compound	IC50 (IFNa pSTAT1 [1]) [nM]	IC50 (IFNa pSTAT1 [2]) [nM]	IC50 (TYK2-JH2 domain) [nM]	IC50 [3] [nM]	IC50 (JAK1-JH2 domain) [nM]	JAK1/TYK2 selectivity (TYK2-JH2 domain; ratio of JAK1 JH2 to TYK2 JH2 binding IC50)	IC50 ([3]; Mus musculus, BaF3, 72 h) [nM]
CCC(F)(F)c1cnc(NC(=O)C2CC2)cc1Nc1nn(C)c2ccc(C(O)C(F)(F)F)c(OC)c12 (single isomer, unassigned) [Example 193A, (S*)-N-(5-(1,1-Difluoropropyl)-4-((4-methoxy-1-methyl-5-(2,2,2-trifluoro-1-hydroxyethyl)-1H-indazol-3-yl)amino)pyridin-2-yl)cyclopropanecarboxamide]	4.28	0.821	0.417	0.395	–	–	–
COC(=O)c1cnc(NC(=O)C2CC2)cc1Nc1nn(C)c2ccc(C(OC)C(F)F)c(OC)c12 (stereo not shown) [Example 68, Methyl 6-(cyclopropanecarboxamido)-4-((5-(2,2-difluoro-1-methoxyethyl)-4-methoxy-1-methyl-1H-indazol-3-yl)amino)nicotinate]	3.17	< 0.061	0.14	–	16.3	116.36	3.6
